Experimental data as given in US20230346670A1, “Prebiotic Oral Care Compositions and Methods” (Colgate-Palmolive Company, priority 2020, published 2023).
Marks after values point to notes of the source that are not given here.

Assays:
Assay type in all cases: cell-based
A. viscosus = experiment: Multi-species biofilm composition, absolute abundance (Geq/mL); conditions: repeated rinsing
Procedure: (§1) Biofilms are grown vertically on Calcium Deficient Hydroxyapatite (CAD-HA) disks (Hitemco Medical, Old Bethpage, USA) using the Amsterdam Active Adhesion model. Biofilms are allowed to establish during 24 h (37° C., 170 rpm) under microaerophilic conditions (6% O2, 7% CO2, 7% H2, 80% N2). After this 24 h, disks are rinsed 3 times a day for 3 minutes (RT, 250 rpm), for 3 consecutive days, by transferring the lid containing the disks to a new 24-well plate containing 2 mL/well of the appropriate substrate solution. As a negative control, PBS (pH 5.7) without substrate supplementation is used.
(§2) N-acetyl-D-glucosamine (NADG), α-D-lactose, D-(+)-trehalose and D-(+)-raffinose are selected to determine their effects on multi-species biofilm composition. […] decrease in absolute numbers in at least four of the pathogenic bacterial species tested in the assay, in comparison to the control, the results of which are described in Table 1 below. Note, NADG decreased absolute numbers of S. sobrinus. Absolute abundances of bacterial species are shown as mean ± SD (n = 3) logarithmic values of the genome equivalents per millilitre (log(Geq/mL)).

F. nucleatum = experiment: as above; conditions: repeated rinsing
Procedure: as §1, §2

S. mutans = experiment: as above; conditions: repeated rinsing
Procedure: as §1, §2

S. salivarius = experiment: as above; conditions: repeated rinsing
Procedure: as §1, §2

S. sanguinis = experiment: as above; conditions: repeated rinsing
Procedure: as §1, §2

V. parvula = experiment: as above; conditions: for absolute abundance of V. parvula (VP), mean ± SD log (Geq/mL): repeated rinsing
Procedure: as §1, §2

A. actinomycetemcomitans = experiment: as above; conditions: repeated rinsing
Procedure: as §1
(§3) N-acetyl-D-glucosamine (NADG), α-D-lactose, D-(+)-trehalose and D-(+)-raffinose are selected to determine their effects on multi-species biofilm composition. Repeated rinsing of the biofilms with the substrates at a concentration of 1 M results in a significant decrease in absolute numbers in at least four of the pathogenic bacterial species tested in the assay, in comparison to the control, the results of which are described in Table 1 below. Note, NADG decreased absolute numbers of S. sobrinus. Absolute abundances of bacterial species are shown as mean ± SD (n = 3) logarithmic values of the genome equivalents per millilitre (log(Geq/mL)).

A. naeslundii = experiment: as above; conditions: repeated rinsing
Procedure: as §1, §3

P. gingivalis = experiment: as above; conditions: repeated rinsing
Procedure: as §1, §3

P. intermedia = experiment: as above; conditions: repeated rinsing
Procedure: as §1, §3

S. gordonii = experiment: as above; conditions: repeated rinsing
Procedure: as §1, §3

S. mitis = experiment: as above; conditions: repeated rinsing
Procedure: as §1, §3

S. oralis = experiment: as above; conditions: repeated rinsing
Procedure: as §1, §3

S. sobrinus = experiment: as above; conditions: repeated rinsing
Procedure: as §1, §3

[1] = system: multi-species biofilm (beneficial/commensal species, periodontal pathogens, cariogenic pathogens); experiment: Multi-species biofilm composition, relative proportions and group changes
Procedure: Biofilms are grown vertically on Calcium Deficient Hydroxyapatite (CAD-HA) disks (Hitemco Medical, Old Bethpage, USA) using the Amsterdam Active Adhesion model. […] After this 24 h, disks are rinsed 3 times a day for 3 minutes (RT, 250 rpm), for 3 consecutive days, by transferring the lid containing the disks to a new 24-well plate containing 2 mL/well of the appropriate substrate solution. As a negative control, PBS (pH 5.7) without substrate supplementation is used. N-acetyl-D-glucosamine (NADG), α-D-lactose, D-(+)-trehalose and D-(+)-raffinose are selected to determine their effects on multi-species biofilm composition. Repeated rinsing of the biofilms with the substrates at a concentration of 1 M results in a significant decrease in absolute numbers in at least four of the pathogenic bacterial species tested in the assay, in comparison to the control, the results of which are described in Table 1 below. Note, NADG decreased absolute numbers of S. sobrinus. Absolute abundances of bacterial species are shown as mean ± SD (n = 3) logarithmic values of the genome equivalents per millilitre (log(Geq/mL)).

[2] = system: F. nucleatum virulence genes; experiment: Virulence gene expression in multi-species biofilm (SYBR RT-qPCR); conditions: relative to control = 1, 2^-ΔΔCt, n = 3
Procedure: as §1
The virulence of the substrate-treated multi-species biofilms are evaluated by analyzing the relative expression of 33 genes that are recognized as being related to some form of virulence and from 4 periodontal pathogens.
Expression of bacterial virulence genes is analyzed through SYBR RT-qPCR and normalized for bacterial housekeeping gene expression. […] These effects are illustrated in Tables 6a and 6b:
Note, for Table 6c, fold changes in virulence gene expression are determined relative to the control condition through the 2^^-ΔΔCt method and are shown as the geometric mean (C.I.) (n = 3) of the 2^^-ΔΔCt values. All substrates are dissolved in PBS at a concentration of 1 M (upper part) or 1%(w/v) (lower part). Values between 0 and 1 represent relative downregulation, values >1 represent relative upregulation. […] NADG: N-acetyl-D-glucosamine; C.I.: 95% confidence interval.

[3] = Table 1a, substrate 1 M, listed as α-D-lactose
[4] = Table 3, separate experiments, concentration not given

OC[C@H]1O[C@@H](O[C@H]2[C@H](O)[C@@H](O)[C@@H](O)O[C@@H]2CO)[C@H](O)[C@@H](O)[C@H]1O [D-lactose, α-D-lactose]
absolute abundance of A. viscosus (Av), mean ± SD log (Geq/mL) (A. viscosus; substrate 1% (w/v)): 7.89 ± 0.13 log (Geq/mL)
absolute abundance of A. viscosus (Av), mean ± SD log (Geq/mL) (A. viscosus; substrate 1 M in PBS, n = 3): 6.78 ± 0.41 log (Geq/mL)
absolute abundance of F. nucleatum (Fn), mean ± SD log (Geq/mL) (F. nucleatum; substrate 1% (w/v)): 9.39 ± 0.42 log (Geq/mL)
absolute abundance of F. nucleatum (Fn), mean ± SD log (Geq/mL) (F. nucleatum; substrate 1 M in PBS, n = 3): 5.49 ± 0.46^∗ log (Geq/mL)
absolute abundance of S. mutans, mean ± SD log (Geq/mL) (S. mutans; substrate 1% (w/v)): 7.48 ± 0.14 log (Geq/mL)
absolute abundance of S. mutans, mean ± SD log (Geq/mL) (S. mutans; substrate 1 M in PBS, n = 3): 8.00 ± 0.56 log (Geq/mL)
absolute abundance of S. salivarius, mean ± SD log (Geq/mL) (S. salivarius; substrate 1% (w/v)): 2.65 ± 0.00 log (Geq/mL)
absolute abundance of S. salivarius, mean ± SD log (Geq/mL) (S. salivarius; substrate 1 M in PBS, n = 3): 6.95 ± 0.14^∗ log (Geq/mL)
absolute abundance of S. sanguinis, mean ± SD log (Geq/mL) (S. sanguinis; substrate 1% (w/v)): 8.99 ± 0.54 log (Geq/mL)
absolute abundance of S. sanguinis, mean ± SD log (Geq/mL) (S. sanguinis; substrate 1 M in PBS, n = 3): 5.80 ± 1.09 log (Geq/mL)
absolute abundance of V. parvula (VP), mean ± SD log (Geq/mL) (V. parvula; substrate 1% (w/v)): 9.92 ± 0.20 log (Geq/mL)
reduction of V. parvula numbers in comparison to the control (V. parvula; substrate 1 M): ~ 0.7 log(Geq/mL)
absolute abundance of V. parvula (VP), mean ± SD log (Geq/mL) (V. parvula; substrate 1 M in PBS, n = 3): 9.45 ± 0.15^∗ log (Geq/mL)
absolute abundance of A. actinomycetemcomitans (Aa), mean ± SD log (Geq/mL) (A. actinomycetemcomitans; substrate 1% (w/v)): 9.44 ± 0.41 log (Geq/mL)
absolute abundance of A. actinomycetemcomitans (Aa), mean ± SD log (Geq/mL) (A. actinomycetemcomitans; substrate 1 M in PBS, n = 3): 7.87 ± 0.04^∗ log (Geq/mL)
absolute abundance of A. naeslundii (An), mean ± SD log (Geq/mL) (A. naeslundii; substrate 1% (w/v)): 7.75 ± 0.24 log (Geq/mL)
absolute abundance of A. naeslundii (An), mean ± SD log (Geq/mL) (A. naeslundii; substrate 1 M in PBS, n = 3): 4.86 ± 0.19^∗ log (Geq/mL)
absolute abundance of P. gingivalis (Pg), mean ± SD log (Geq/mL) (P. gingivalis; substrate 1% (w/v)): 6.93 ± 0.10 log (Geq/mL)
absolute abundance of P. gingivalis (Pg), mean ± SD log (Geq/mL) (P. gingivalis; substrate 1 M in PBS, n = 3): 4.26 ± 0.51^∗ log (Geq/mL)
absolute abundance of P. intermedia (Pi), mean ± SD log (Geq/mL) (P. intermedia; substrate 1% (w/v)): 8.13 ± 0.25 log (Geq/mL)
absolute abundance of P. intermedia (Pi), mean ± SD log (Geq/mL) (P. intermedia; substrate 1 M in PBS, n = 3): 4.05 ± 0.61^∗ log (Geq/mL)
absolute abundance of S. gordonii, mean ± SD log (Geq/mL) (S. gordonii; substrate 1% (w/v)): 8.4 ± 0.11 log (Geq/mL)
absolute abundance of S. gordonii, mean ± SD log (Geq/mL) (S. gordonii; substrate 1 M in PBS, n = 3): 9.31 ± 0.41 log (Geq/mL)
absolute abundance of S. mitis, mean ± SD log (Geq/mL) (S. mitis; substrate 1% (w/v)): 2.65 ± 0.00 log (Geq/mL)
absolute abundance of S. mitis, mean ± SD log (Geq/mL) (S. mitis; substrate 1 M in PBS, n = 3): 3.17 ± 0.75 log (Geq/mL)
absolute abundance of S. oralis, mean ± SD log (Geq/mL) (S. oralis; substrate 1% (w/v)): 6.6 ± 0.17 log (Geq/mL)
absolute abundance of S. oralis, mean ± SD log (Geq/mL) (S. oralis; substrate 1 M in PBS, n = 3): 7.45 ± 0.46 log (Geq/mL)
absolute abundance of S. sobrinus, mean ± SD log (Geq/mL) (S. sobrinus; substrate 1% (w/v)): 5.27 ± 0.24 log (Geq/mL)
absolute abundance of S. sobrinus, mean ± SD log (Geq/mL) (S. sobrinus; substrate 1 M in PBS, n = 3): 7.82 ± 0.11^∗ log (Geq/mL)
relative proportion of beneficial or commensal species in biofilm ([1]; Table 1a, substrate 1 M): 92.72 (+/- 4.39)^∗ % (Geq/mL)
relative proportion of cariogenic pathogens in biofilm ([1]; Table 1a, substrate 1 M): 5.82 (+/- 3.94) % (Geq/mL)
relative proportion of periodontal pathogens in biofilm ([1]; Table 1a, substrate 1 M): 1.46 (+/- 0.64)^∗ % (Geq/mL)
relative proportion of beneficial or commensal species in biofilm [1, 3]: 92.72±4.39 % (Geq/mL)
relative proportion of cariogenic pathogens in biofilm [1, 3]: 5.82±3.94 % (Geq/mL)
relative proportion of periodontal pathogens in biofilm [1, 3]: 1.46±0.64 % (Geq/mL)
relative proportion of beneficials/commensals in biofilm [1, 4]: 64.14 (+/- 9.81) % (Geq/mL)
relative proportion of cariogenic pathogens in biofilm [1, 4]: 0.21 (+/- 0.08) % (Geq/mL)
relative proportion of periodontal pathogens in biofilm [1, 4]: 35.65 (+/- 9.88) % (Geq/mL)
fold change in ABC transp. perm. (ABC transporter permease) expression, geometric mean (95% C.I.) ([2]; substrate 1% (w/v)): 0.25 (0.08-0.78)^∗ fold
fold change in EF-G expression, geometric mean (95% C.I.) ([2]; substrate 1% (w/v)): 0.13 (0.03-0.51)^∗ fold
fold change in but. -coA transf. (butyrate-acetoacetate CoA-transferase) expression, geometric mean (95% C.I.) ([2]; substrate 1% (w/v)): 0.57 (0.40-0.83) fold
fold change in hemin receptor expression, geometric mean (95% C.I.) ([2]; substrate 1% (w/v)): 0.17 (0.03-0.94)^∗ fold
fold change in hemolysin expression, geometric mean (95% C.I.) ([2]; substrate 1% (w/v)): 1.00 (0.60-1.68) fold
fold change in ompA expression, geometric mean (95% C.I.) ([2]; substrate 1% (w/v)): 1.13 (0.58-2.19) fold
fold change in transposase expression, geometric mean (95% C.I.) ([2]; substrate 1% (w/v)): 1.26 (0.51-3.13) fold
fold change in ABC transp. perm. (ABC transporter permease) expression, geometric mean (95% C.I.) ([2]; substrate 1 M): 16.97 (5.93-48.61)^∗ fold
fold change in EF-G expression, geometric mean (95% C.I.) ([2]; substrate 1 M): 1.54 (0.94-2.53) fold
fold change in but. -coA transf. (butyrate-acetoacetate CoA-transferase) expression, geometric mean (95% C.I.) ([2]; substrate 1 M): 3.88 (0.87-17.43)* fold
fold change in hemin receptor expression, geometric mean (95% C.I.) ([2]; substrate 1 M): 36.87 (17.27-78.74)^∗ fold
fold change in hemolysin expression, geometric mean (95% C.I.) ([2]; substrate 1 M): 6.34 (1.36-29.47)^∗ fold
fold change in ompA expression, geometric mean (95% C.I.) ([2]; substrate 1 M): 1.26 (0.79-2.03) fold
fold change in transposase expression, geometric mean (95% C.I.) ([2]; substrate 1 M): 172.87 (147.10-203.20)^∗ fold
